Assays:
Assay type in all cases: in vivo
[1] = system: velvetleaf (Abutilon theophrasti); assay: Test B preemergence
Method in brief: (§1)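 Post-treatment, species sat 13–15 days under greenhouse conditions before visual scoring against controls, 0 (no effect) through 100 (complete control). Application preemergence to sown seeds or postemergence at 1- to 4-leaf stage, using a non-phytotoxic solvent/surfactant formulation.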

[2] = system: giant foxtail (Setaria faberii); assay: Test B preemergence
Method in brief: as §1

[3] = system: lambsquarters (Chenopodium album); assay: Test B preemergence
Method in brief: as §1

[4] = system: morning glory (Ipomoea hederacea); assay: Test B preemergence
Method in brief: as §1

[5] = system: cocklebur (Xanthium strumarium); assay: Test B preemergence; conditions: scale 0 to 100, 0 no effect, 100 complete control
Method in brief: as §1

[6] = system: pigweed (Amaranthus retroflexus); assay: Test B preemergence
Method in brief: as §1

[7] = system: crabgrass (Digitaria sanguinalis); assay: Test B preemergence
Method in brief: as §1

[8] = system: barnyardgrass (Echinochloa crus-galli); assay: Test B preemergence
Method in brief: as §1

[9] = system: Surinam grass (Brachiaria decumbens); assay: Test B preemergence
Method in brief: as §1

[10] = system: corn (Zea mays); assay: Test B preemergence
Method in brief: as §1

[11] = system: wheat (Triticum aestivum); assay: Test B postemergence; conditions: 13 to 15 days
Method in brief: as §1

[12] = system: velvetleaf (Abutilon theophrasti); assay: Test B postemergence; conditions: 13 to 15 days
Method in brief: as §1

[13] = system: blackgrass (Alopecurus myosuroides); assay: Test B postemergence; conditions: 13 to 15 days
Method in brief: as §1

[14] = system: giant foxtail (Setaria faberii); assay: Test B postemergence; conditions: 13 to 15 days
Method in brief: as §1

[15] = system: lambsquarters (Chenopodium album); assay: Test B postemergence; conditions: 13 to 15 days
Method in brief: as §1

[16] = system: morning glory (Ipomoea hederacea); assay: Test B postemergence; conditions: 13 to 15 days
Method in brief: as §1

[17] = system: cocklebur (Xanthium strumarium); assay: Test B postemergence; conditions: 13 to 15 days
Method in brief: as §1

[18] = system: wild oat (Avena fatua); assay: Test B postemergence; conditions: 13 to 15 days
Method in brief: as §1

[19] = system: pigweed (Amaranthus retroflexus); assay: Test B postemergence; conditions: 13 to 15 days
Method in brief: as §1

[20] = system: crabgrass (Digitaria sanguinalis); assay: Test B postemergence; conditions: 13 to 15 days
Method in brief: as §1

[21] = system: barnyardgrass (Echinochloa crus-galli); assay: Test B postemergence; conditions: 13 to 15 days
Method in brief: as §1

[22] = system: Surinam grass (Brachiaria decumbens); assay: Test B postemergence; conditions: 13 to 15 days
Method in brief: as §1

[23] = system: corn (Zea mays); assay: Test B postemergence; conditions: 13 to 15 days
Method in brief: as §1

[24] = system: rice (Oryza saliva); assay: Test B preemergence
Method in brief: as §1

[25] = Preemergence, Rate 500 g/ha, scale 0 to 100, 0 no effect, 100 complete control
[26] = preemergence, Rate 125 g/ha, scale 0 to 100, 0 no effect, 100 complete control
[27] = Rate 125 g/ha, scale 0 (no effect) to 100 (complete control)
[28] = Rate 500 g/ha, scale 0 to 100, 0 is no effect, 100 is complete control
[29] = preemergence, Rate 62 g/ha, scale of 0 to 100 where 0 is no effect and 100 is complete control, 13 to 15 days
[30] = preemergence, Rate 250 g/ha, scale 0 to 100, 0 no effect, 100 complete control
[31] = Rate 250 g/ha, scale 0 (no effect) to 100 (complete control)

CC(C)(C)c1ccn(C2SCN(c3cccc(C(F)(F)F)c3)C2=O)n1 (stereo not drawn) [Compound 1]
0: Plant response rating, Velvetleaf [1, 26] | Plant response rating, Cocklebur ([5]; preemergence, Rate 125 g/ha) | Plant response rating, Crabgrass [7, 26] | Plant response rating, Surinam grass [9, 25] | Plant response rating, Surinam grass [9, 26] | Plant response rating, Corn [10, 26] | Plant response rating, Wheat [11, 27] | Plant response rating, Blackgrass [13, 27] | Plant response rating, Blackgrass [13, 28] | Plant response rating, Wild Oat [18, 27] | Plant response rating, Wild Oat [18, 28] | Plant response rating, Crabgrass [20, 27] | Plant response rating, Barnyardgrass [21, 27] | Plant response rating, Surinam grass [22, 27] | Plant response rating, Surinam grass [22, 28] | Plant response rating, Corn [23, 27]
40: Plant response rating, Morningglory [4, 25] | Plant response rating, Cocklebur ([5]; Preemergence, Rate 500 g/ha) | Plant response rating, Crabgrass [20, 28]
20: Plant response rating, Morningglory [4, 26] | Plant response rating, Corn [10, 25]
30: Plant response rating, Velvetleaf [1, 25] | Plant response rating, Wheat [11, 28] | Plant response rating, Foxtail, Giant [14, 27]
100: Plant response rating, Foxtail, Giant [2, 25] | Plant response rating, Lambsquarters [3, 25] | Plant response rating, Lambsquarters [3, 26] | Plant response rating, Pigweed [6, 25] | Plant response rating, Pigweed [6, 26] | Plant response rating, Crabgrass [7, 25] | Plant response rating, Barnyardgrass [8, 25] | Plant response rating, Lambsquarters [15, 28] | Plant response rating, Morningglory [16, 28] | Plant response rating, Pigweed [19, 28]
60: Plant response rating, Velvetleaf [12, 28] | Plant response rating, Foxtail, Giant [14, 28] | Plant response rating, Cocklebur [17, 27] | Plant response rating, Corn [23, 28]
90: Plant response rating, Lambsquarters [15, 27] | Plant response rating, Pigweed [19, 27]
50: Plant response rating, Foxtail, Giant [2, 26] | Plant response rating, Barnyardgrass [8, 26] | Plant response rating, Velvetleaf [12, 27] | Plant response rating, Morningglory [16, 27] | Plant response rating, Barnyardgrass [21, 28]
80: Plant response rating, Cocklebur [17, 28]

CC1(C)CCc2cn(C3CCN(c4cccc(C(F)(F)F)c4)C3=O)nc21 (stereo not drawn) [Compound 10]
20: Plant response rating, Surinam grass [9, 29]
90: Plant response rating, Pigweed [6, 29]
80: Plant response rating, Foxtail, Giant [2, 29]
0: Plant response rating, Velvetleaf [1, 25] | Plant response rating, Velvetleaf [1, 29] | Plant response rating, Velvetleaf [1, 26] | Plant response rating, Velvetleaf [1, 30] | Plant response rating, Foxtail, Giant [2, 25] | Plant response rating, Foxtail, Giant [2, 26] | Plant response rating, Lambsquarters [3, 25] | Plant response rating, Lambsquarters [3, 26] | Plant response rating, Morningglory [4, 25] | Plant response rating, Morningglory [4, 29] | Plant response rating, Morningglory [4, 26] | Plant response rating, Morningglory [4, 30] | Plant response rating, Cocklebur ([5]; Preemergence, Rate 500 g/ha) | Plant response rating, Cocklebur ([5]; preemergence, Rate 125 g/ha) | Plant response rating, Cocklebur ([5]; preemergence, Rate 250 g/ha) | Plant response rating, Pigweed [6, 25] | Plant response rating, Pigweed [6, 26] | Plant response rating, Crabgrass [7, 25] | Plant response rating, Crabgrass [7, 26] | Plant response rating, Rice [24, 25] | Plant response rating, Rice [24, 29] | Plant response rating, Rice [24, 26] | Plant response rating, Rice [24, 30] | Plant response rating, Barnyardgrass [8, 25] | Plant response rating, Barnyardgrass [8, 29] | Plant response rating, Barnyardgrass [8, 26] | Plant response rating, Surinam grass [9, 25] | Plant response rating, Surinam grass [9, 26] | Plant response rating, Corn [10, 25] | Plant response rating, Corn [10, 29] | Plant response rating, Corn [10, 26] | Plant response rating, Wheat [11, 27] | Plant response rating, Wheat [11, 31] | Plant response rating, Wheat [11, 28] | Plant response rating, Velvetleaf [12, 27] | Plant response rating, Velvetleaf [12, 31] | Plant response rating, Velvetleaf [12, 28] | Plant response rating, Blackgrass [13, 27] | Plant response rating, Blackgrass [13, 31] | Plant response rating, Blackgrass [13, 28] | Plant response rating, Foxtail, Giant [14, 27] | Plant response rating, Foxtail, Giant [14, 31] | Plant response rating, Foxtail, Giant [14, 28] | Plant response rating, Lambsquarters [15, 27] | Plant response rating, Lambsquarters [15, 28] | Plant response rating, Morningglory [16, 27] | Plant response rating, Morningglory [16, 31] | Plant response rating, Morningglory [16, 28] | Plant response rating, Cocklebur [17, 27] | Plant response rating, Cocklebur [17, 31] | Plant response rating, Cocklebur [17, 28] | Plant response rating, Wild Oat [18, 27] | Plant response rating, Wild Oat [18, 31] | Plant response rating, Wild Oat [18, 28] | Plant response rating, Pigweed [19, 27] | Plant response rating, Pigweed [19, 31] | Plant response rating, Pigweed [19, 28] | Plant response rating, Crabgrass [20, 27] | Plant response rating, Crabgrass [20, 31] | Plant response rating, Crabgrass [20, 28] | Plant response rating, Barnyardgrass [21, 27] | Plant response rating, Barnyardgrass [21, 31] | Plant response rating, Barnyardgrass [21, 28] | Plant response rating, Surinam grass [22, 27] | Plant response rating, Surinam grass [22, 31] | Plant response rating, Surinam grass [22, 28] | Plant response rating, Corn [23, 27] | Plant response rating, Corn [23, 31] | Plant response rating, Corn [23, 28]
30: Plant response rating, Surinam grass [9, 30] | Plant response rating, Corn [10, 30]
100: Plant response rating, Foxtail, Giant [2, 30] | Plant response rating, Lambsquarters [3, 29] | Plant response rating, Lambsquarters [3, 30] | Plant response rating, Pigweed [6, 30] | Plant response rating, Crabgrass [7, 29] | Plant response rating, Crabgrass [7, 30] | Plant response rating, Barnyardgrass [8, 30] | Plant response rating, Lambsquarters [15, 31]

CC(C)(C)c1ccn(C2CCN(c3cccc(C(F)(F)F)c3)C2=O)n1 (stereo not drawn) [Example 3, 3-[3-(1,1-dimethylethyl)-1H-pyrazol-1-yl]-1-[3-(trifluoromethyl)phenyl]-2-pyrrolidinone]
70: Plant response rating, Crabgrass [7, 26] | Plant response rating, Surinam grass [9, 25] | Plant response rating, Pigweed [19, 27] | Plant response rating, Barnyardgrass [21, 28]
30: Plant response rating, Corn [10, 25] | Plant response rating, Foxtail, Giant [14, 28] | Plant response rating, Morningglory [16, 28] | Plant response rating, Cocklebur [17, 28]
20: Plant response rating, Surinam grass [22, 28]
80: Plant response rating, Foxtail, Giant [2, 25] | Plant response rating, Barnyardgrass [8, 26] | Plant response rating, Lambsquarters [15, 27]
40: Plant response rating, Foxtail, Giant [2, 26] | Plant response rating, Surinam grass [9, 26] | Plant response rating, Crabgrass [20, 28]
90: Plant response rating, Pigweed [19, 28]
100: Plant response rating, Lambsquarters [3, 25] | Plant response rating, Lambsquarters [3, 26] | Plant response rating, Pigweed [6, 25] | Plant response rating, Pigweed [6, 26] | Plant response rating, Crabgrass [7, 25] | Plant response rating, Barnyardgrass [8, 25] | Plant response rating, Lambsquarters [15, 28]
0: Plant response rating, Velvetleaf [1, 25] | Plant response rating, Velvetleaf [1, 26] | Plant response rating, Morningglory [4, 25] | Plant response rating, Morningglory [4, 26] | Plant response rating, Cocklebur ([5]; Preemergence, Rate 500 g/ha) | Plant response rating, Cocklebur ([5]; preemergence, Rate 125 g/ha) | Plant response rating, Corn [10, 26] | Plant response rating, Wheat [11, 27] | Plant response rating, Wheat [11, 28] | Plant response rating, Velvetleaf [12, 27] | Plant response rating, Velvetleaf [12, 28] | Plant response rating, Blackgrass [13, 27] | Plant response rating, Blackgrass [13, 28] | Plant response rating, Foxtail, Giant [14, 27] | Plant response rating, Morningglory [16, 27] | Plant response rating, Cocklebur [17, 27] | Plant response rating, Wild Oat [18, 27] | Plant response rating, Wild Oat [18, 28] | Plant response rating, Crabgrass [20, 27] | Plant response rating, Barnyardgrass [21, 27] | Plant response rating, Surinam grass [22, 27] | Plant response rating, Corn [23, 27] | Plant response rating, Corn [23, 28]
